Experimental data: US20120115869A1, “TETRAZOLE DERIVATIVES” (MERCK SERONO S.A., priority 2009, published 2012)
pIC50: −log10 of the molar value.

Tests used:
CRTH2 [1] = biological target: T1, CRTH2 (Homo sapiens, UniProt Q9Y5Y4); assay: [35S]GTPγS binding assay on CHO-CRTH2 cell membranes; type: biochemical; conditions: for Emax: without addition of PGD2, 100% of Emax being the activity measured by the addition of 1 μM of PGD2
T1 construct: expressed in transfected cells; host or cells: CHO cells
T1 sequence (Q9Y5Y4 1-395): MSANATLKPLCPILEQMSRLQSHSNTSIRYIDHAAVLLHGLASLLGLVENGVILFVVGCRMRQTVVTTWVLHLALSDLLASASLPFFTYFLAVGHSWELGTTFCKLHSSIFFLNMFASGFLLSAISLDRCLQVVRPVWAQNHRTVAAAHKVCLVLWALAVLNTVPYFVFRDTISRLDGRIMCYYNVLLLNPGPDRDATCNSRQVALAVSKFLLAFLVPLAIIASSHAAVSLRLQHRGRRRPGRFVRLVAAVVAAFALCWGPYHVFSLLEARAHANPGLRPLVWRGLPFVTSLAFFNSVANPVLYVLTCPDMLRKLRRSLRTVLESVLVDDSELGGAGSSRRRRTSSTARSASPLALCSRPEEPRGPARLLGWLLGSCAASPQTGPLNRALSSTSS
Experimental: Adherent CHO cells expressing hCRTH2 (Euroscreen, Belgium) were cultured in 225 cm^2 cell culture flasks (Corning, USA) in 30 ml of medium. After two rinses of phosphate buffered saline (PBS), cells were harvested in 10 ml of PBS containing 1 mM EDTA, centrifuged at 500×g for 5 min at 4° C. and frozen at −80° C. The pellet was re-suspended in 50 mM Tris-HCl, pH 7.4, 2 mM EDTA, 250 mM Sucrose, containing protease inhibitor cocktail tablets, (Complete EDTA-free, Roche, Germany) and incubated 30 min at 4° C. Cells were disrupted by nitrogen cavitation (Parr Instruments, USA) at 4° C. (800 p.s.i. for 30 min), and centrifuged at 500×g for 10 min at 4° C. Pellet containing nuclei and cellular debris was discarded and supernatant was centrifuged 60 min at 4° C. at 45000×g. Membrane pellet was re-suspended in storage buffer (10 mM HEPES/KOH pH 7.4, 1 mM EDTA, 250 mM sucrose, protease inhibitor cocktail tablets) using Dounce homogenization and frozen in liquid nitrogen, and stored at 80° C.
The [^35S]GTPγS assay measures the increase in guanine nucleotide exchange at G-proteins in cell membranes, resulting from agonist (PGD2) binding to CRTH2. […] Briefly, Compounds of Formula (I) are incubated in 96-well scintillating white polystyrene plates (Perkin Elmer, USA) in a final volume of 200 μl containing 20 mM HEPES/KOH pH 7.4, 3 mM MgCl2, 10 μg/ml Saponin, 5 μM GDP, 75 mM NaCl and 2% of dimethylsulphoxide (DMSO). […] After 60 min incubation at 30° C., reaction is stopped by centrifugation at 700×g, at 4° C. for 10 minutes and supernatant is removed. […] For IC50 determination, increasing concentrations of compounds are incubated in presence of a fixed concentration of PGD2 (EC80). For EC50 measurements, compounds are incubated without addition of PGD2. Basal [^35S]GTPγS activity is determined without addition of any ligands or compounds. 100% [^35S]GTPγS activity is measured by the addition of 1 μM of PGD2.

CRTH2 (DP2) = biological target: T2, CRTH2 (DP2) (Homo sapiens, UniProt Q9Y5Y4); assay: Radioligand binding Scintillation Proximity Assay ([3H]PGD2, hCRTH2-CHO cell membranes); conditions: 1.5 nM [3H]PGD2, hCRTH2-CHO cell membranes, SPA
T2 construct: host or cells: CHO cells
T2 sequence (Q9Y5Y4 1-395): T1 sequence (Q9Y5Y4 1-395)
Method in brief: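 Membranes from CHO cells stably expressing human CRTH2, made by nitrogen cavitation and differential centrifugation. Compounds competed with [3H]PGD2 at 1% DMSO for 90 min with agitation at room temperature. Non-specific binding taken with 10 μM PGD2.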

CRTH2 [2] = biological target: T1, CRTH2; assay: Cellular Dielectric Spectroscopy in CHO-CRTH2 cells; type: cell-based; conditions: for EC50: agonist activity without PGD2, read-out: EC50(μM) (CDS, partial agonist); for Emax: agonist activity without PGD2, read-out: EMax (CDS, partial agonist); for IC50: fixed concentration of PGD2 (EC80), read-out: IC50(μM) (CDS, antagonist)
Experimental: Cellular Dielectric Spectroscopy (CDS) is a label-free technology based on the measurement of complex impedance changes (delta Z or dZ). Impedance (Z) is related to the ratio of voltage to current as described by Ohm's law (Z=V/I). In order to measure the changes in impedance that occur in response to receptor stimulation, mammalian cells are seeded onto a custom 96-well microtiter plate that contains electrodes at the bottom of each well Key contributors to the impedance measurements are changes in cell-substrate adherence, changes in cell shape and volume, and changes in cell-cell interactions. These factors individually or collectively affect the flow of current, influencing the magnitude and characteristics of the signal measured. G-protein coupled receptors ligand-induced activity can be measured using this technology and specific G protein coupling can be identified. Activities of reference agonist and antagonist molecules of CRTH2 have been measured using this assay and similar results were obtained compared to different functional assays.
CHO—CRTH2 cells are cultured in HAM's F12 (Lonza, Switzerland) supplemented with 10% foetal calf serum (PAA, Australia) and 400 μg/ml Geneticin. 100000 cells/well are seeded in standard 96 W Microplates (MDS Analytical Technologies) and incubated at 37° C. in 5% CO2 for 24 hours. Cells are washed twice with 135 μl of cell key buffer (Hank's Balanced Salt Solution 1× (HBSS) (Invitrogen) supplemented with 10 mM HEPES pH 7.4 in presence of 1% DMSO). […] Results are expressed as the amplitude between the highest and the lowest signal produced (max-min). Basal and maximum activities are measured, respectively in absence or presence of PGD2 (EC80).

[3] = In vivo pharmacokinetic evaluation in mouse; conditions: female, C57BL/6, mouse, plasma, mice
Experimental: In order to study the pharmacokinetic (PK) profile of test compounds in vivo, Sprague Dawley male rats or C57BL/6 female mice were dosed intravenously or after oral gavage. For both species, test compounds were dosed in solution at 1 mg/kg for i.v. route (10% ethanol, 10% N,N-dimethylacetamide, 30% propylene glycol, 50% water, v/v) and in suspension at 5 mg/kg (0.5% carboxymethylcellulose suspension, containing 0.25% Tween 20 in water) for oral gavage. PK profile in rat was obtained from 3 animals per dosing route and mouse PK profile was determined from 3 animals for each time points. The volume of administration was 2 mL/kg for i.v. dosing in both species and either 5 mL/kg (rat) or 10 mL/kg (mouse) for oral gavage. Blood samples (100 μL/time point) were collected at 0.083 (5 min), 0.25, 0.5, 1, 4, 7 and 24 hours post-dose for i.v. dosing, and at 0.5, 1, 4, 7 and 24 h for oral dosing, into heparin-Li+ containing tubes. For rats, all blood samples were collected trough a catheter in the carotid artery (placed in the artery the day before the experiment), under light isoflurane anesthesia, and stored on ice until centrifugation and plasma isolation. For mouse, blood samples were collected from intracardiac puncture at sacrifice at each time point and processed as described above for the rat. Plasma samples were stored frozen until analysis (−20° C. to −70° C.). For bioanalysis, samples were processed by protein precipitation (acetonitrile, formic acid 0.1%, addition of 3 volumes) after addition of one internal standard and analysed using a sensitive and selective LC/MS/MS method. An aliquot of the resulting supernatant was subject to LC/MS/MS analysis using a reverse phase column (Waters Xterra, C8, (3.5 μm particle size, 2.1×50 mm) and a short gradient (1 min) from (Solvent A) 85% water, 15% acetonitrile and 0.1% formic acid to (Solvent B) 90% acetonitrile, 10% water and 0.1% formic acid followed by isocratic conditions of Solvent B for 3.5 min at 0.4 mL/min. Column effluent was monitored using a Sciex API 4000 triple quadrupole mass spectrometer with a Turbo V electrospray ion source. Unknown concentrations of test compounds were determined using a calibration curve ranging from 1 to 3000 ng/mL.

Emax (CRTH2 [1])	pIC50 (CRTH2 (DP2))	melting point	SMILES	also measured
-9.9%	7.60	177 to 180 °C	CCCCC(=O)N(Cc1ccc(OC(F)(F)F)cc1)c1cc(Cl)cc(-c2nnn[nH]2)c1 [Example 40, N-[3-chloro-5-(1H-tetrazol-5-yl)phenyl]-N-[4-(trifluoromethoxy)benzyl]pentanamide]	
	8.13	146 to 151 °C	COCCC(=O)N(Cc1ccc(OC(F)(F)F)cc1)c1cc(Cl)cc(-c2nnn[nH]2)c1 [Example 68, N-[3-chloro-5-(1H-tetrazol-5-yl)phenyl]-3-methoxy-N-[4-(trifluoromethoxy)benzyl]propanamide]	
	8.43		CC(C)CC(=O)N(Cc1ccc(S(C)(=O)=O)cc1)c1cc(F)cc(-c2nnn[nH]2)c1 [Example 104, N-[3-fluoro-5-(1H-tetrazol-5-yl)phenyl]-3-methyl-N-[4-(methylsulfonyl)benzyl]butanamide]	EC50 (CRTH2 [2]): 0.0011 µM; Emax (CRTH2 [2]): 27%
	8.44	118 to 120 °C	CCCCC(=O)N(Cc1cccc(OC)c1)c1cc(F)cc(-c2nnn[nH]2)c1 [Example 37, N-[3-fluoro-5-(1H-tetrazol-5-yl)phenyl]-N-(3-methoxybenzyl)pentanamide]	
-12.6%	7.82	137 °C	CCCCC(=O)N(Cc1ccc(OC(F)(F)F)c(Cl)c1)c1cc(F)cc(-c2nnn[nH]2)c1 [Example 54, N-[3-chloro-4-(trifluoromethoxy)benzyl]-N-[3-fluoro-5-(1H-tetrazol-5-yl)phenyl]pentanamide]	
-10.1%	8.59		CS(=O)(=O)c1ccc(CN(C(=O)c2ccccc2)c2cc(F)cc(-c3nnn[nH]3)c2)cc1 [Example 108, N-[3-fluoro-5-(1H-tetrazol-5-yl)phenyl]-N-[4-(methylsulfonyl)benzyl]benzamide]	pIC50 (CRTH2 [1]; in presence of a fixed concentration of PGD2 (EC80), read-out: IC50 ([35S]GTPγS, antagonist)): 7.65; IC50 (CRTH2 [2]): 0.049 µM
	6.64	91 °C	CCC(=O)N(Cc1cccc(-c2ccccc2)c1)c1cccc(-c2nnn[nH]2)c1 [Example 59, N-(biphenyl-3-ylmethyl)-N-[3-(1H-tetrazol-5-yl)phenyl]propanamide]	
	8.44	122 to 125 °C	CCCCC(=O)N(Cc1ccc(OC)cc1)c1cc(F)cc(-c2nnn[nH]2)c1 [Example 38, N-[3-fluoro-5-(1H-tetrazol-5-yl)phenyl]-N-(4-methoxybenzyl)pentanamide]	
	8.05	158 to 160 °C	CCC(=O)N(Cc1ccc(OC)cc1)c1cc(F)cc(-c2nnn[nH]2)c1 [Example 41, N-[3-fluoro-5-(1H-tetrazol-5-yl)phenyl]-N-(4-methoxybenzyl)propanamide]	
	8.21		CS(=O)(=O)c1ccc(CN(C(=O)C2CCCC2)c2cc(F)cc(-c3nnn[nH]3)c2)cc1 [Example 105, N-[3-fluoro-5-(1H-tetrazol-5-yl)phenyl]-N-[4-(methylsulfonyl)benzyl]cyclopentanecarboxamide]	EC50 (CRTH2 [2]): 0.0024 µM; Emax (CRTH2 [2]): 22%
19%	8.46		CCC(=O)N(Cc1ccc(S(C)(=O)=O)cc1)c1cc(F)cc(-c2nnn[nH]2)c1 [Example 78, N-[3-fluoro-5-(1H-tetrazol-5-yl)phenyl]-N-[4-(methylsulfonyl)benzyl]propanamide]	EC50 (CRTH2 [2]): 0.0011 µM; Emax (CRTH2 [2]): 42%; IC50 (CRTH2 [2]): 0.014 µM
-13.5%	7.80	179 °C	CCCC(=O)N(Cc1ccc(OC(F)(F)F)cc1)c1cc(Cl)cc(-c2nnn[nH]2)c1 [Example 55, N-[3-chloro-5-(1H-tetrazol-5-yl)phenyl]-N-[4-(trifluoromethoxy)benzyl]butanamide]	
	7.92		C#Cc1cccc(CN(C(=O)CCCC)c2cc(-c3nnn[nH]3)ccc2F)c1 [Example 1, N-(3-ethynylbenzyl)-N-[2-fluoro-5-(1H-tetrazol-5-yl)phenyl]pentanamide]	clearance ([3]; iv, i.v. 1 mg/Kg): 1.67 mL/min/kg; AUC ([3]; oral gavage 5 mg/Kg): 12200 ng·h/mL; bioavailability ([3]; po 5 mg/Kg vs iv 1 mg/Kg): 33%; IC50 (CRTH2 [2]): 0.096 µM
	7.29		CCCCC(=O)N(Cc1cccn1S(=O)(=O)c1ccccc1)c1cc(-c2nnn[nH]2)ccc1F [Example 4, N-[2-fluoro-5-(1H-tetrazol-5-yl)phenyl]-N-{[1-(phenylsulfonyl)-1H-pyrrol-2-yl]methyl}pentanamide]	IC50 (CRTH2 [2]): 0.22 µM
